Data taken from US8952024B2, “Herbicidal pyrimidone derivatives” (E I du Pont de Nemours and Company, priority 2009, dated 2015).

Key:
Assay type in all cases: in vivo
[1] = tested on: nightshade (eastern black nightshade, Solanum ptycanthum); assay: Test B pre-/postemergence plant response; conditions: Preemergence; for Nightshade plant response rating: 125 g ai/ha
Outline: (§1)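 Visual injury, 0–100 scale (100 = complete control), rated against controls after 13 to 15 days in greenhouse. Pre-emergence: seeds in loam/sand soil, treated at planting. Post-emergence: 1- to 4-leaf plants (2 to 18 cm) in peat/vermiculite medium. Compounds formulated in non-phytotoxic solvent with surfactant.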

[2] = tested on: galium (catchweed bedstraw, Galium aparine); assay: Test B pre-/postemergence plant response; conditions: Preemergence; for Galium plant response rating: 125 g ai/ha
Outline: as §1

[3] = tested on: sunflower (common oilseed sunflower, Helianthus annuus); assay: Test B pre-/postemergence plant response; conditions: Preemergence; for Sunflower plant response rating: 125 g ai/ha
Outline: as §1

rice (Oryza sativa) = assay: Test B flooded paddy test; conditions: for Plant response rating, Flood, Rice: 250 g ai/ha, flooded paddy test, visual rating on 0 to 100 scale (0 no effect, 100 complete control) after 13 to 15 days; for Plant response rating, Rice: Flood (flooded paddy test), 13 to 15 days
Outline: (§2)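 Ratings are visual, 0–100 (100 = complete control), taken versus untreated controls 13 to 15 days after treatment in the greenhouse. Compound went straight into paddy water held 3 cm above soil, applied to 2-leaf-stage plants of four species.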

[4] = tested on: umbrella sedge (Cyperus difformis); assay: Test B flooded paddy test; conditions: for Plant response rating, Flood, Sedge, Umbrella: 250 g ai/ha, flooded paddy test, visual rating on 0 to 100 scale (0 no effect, 100 complete control) after 13 to 15 days; for Plant response rating, Sedge, Umbrella: Flood (flooded paddy test), 13 to 15 days
Outline: as §2

[5] = tested on: barnyardgrass (Echinochloa crus-galli); assay: Test B flooded paddy test; conditions: for Plant response rating, Flood, Barnyardgrass: 250 g ai/ha, flooded paddy test, visual rating on 0 to 100 scale (0 no effect, 100 complete control) after 13 to 15 days; for Plant response rating, Barnyardgrass: Flood (flooded paddy test), 13 to 15 days
Outline: as §2

[6] = tested on: ducksalad (Heteranthera limosa); assay: Test B flooded paddy test; conditions: for Plant response rating, Flood, Ducksalad: 250 g ai/ha, flooded paddy test, visual rating on 0 to 100 scale (0 no effect, 100 complete control) after 13 to 15 days; for Plant response rating, Ducksalad: Flood (flooded paddy test), 13 to 15 days
Outline: as §2

[7] = tested on: goosegrass (Eleusine indica); assay: Test B pre-/postemergence plant response; conditions: Preemergence, 62 g ai/ha; scale 0 to 100, 0 no effect, 100 complete control
[8] = tested on: giant foxtail (Setaria faberii); assay: Test A pre-/postemergence plant response
Outline: (§3)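 Pre: directed soil spray on seeded loam/sand blend. Post: same formulation (non-phytotoxic solvent + surfactant) on 2–10 cm plants, 1–2 leaf stage. Greenhouse ~10 d; visual injury score 0–100 vs untreated.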

[9] = tested on: barnyardgrass (Echinochloa crus-galli); assay: Test A pre-/postemergence plant response
Outline: as §3

[10] = tested on: pigweed (Amaranthus retroflexus); assay: Test A pre-/postemergence plant response
Outline: as §3

corn (Zea mays) = assay: Test A pre-/postemergence plant response
Outline: as §3

[11] = 31 g ai/ha, scale 0 to 100 (0 no effect, 100 complete control)
[12] = 62 g ai/ha, scale 0 to 100, 0 no effect, 100 complete control
[13] = 31 g ai/ha, scale of 0 to 100 where 0 is no effect and 100 is complete control
[14] = 62 g ai/ha, scale 0 to 100, 0 is no effect, 100 is complete control
[15] = 125 g ai/ha, scale 0 to 100, 0 is no effect, 100 is complete control
[16] = Postemergence, 125 g ai/ha, visual injury, 0 to 100 scale (0 no effect, 100 complete control), approx. ten days
[17] = Postemergence, 500 g ai/ha, 0 to 100 scale, 0 = no effect, 100 = complete control, approx. ten days
[18] = Preemergence, 125 g ai/ha, 0 to 100 scale, 0 = no effect, 100 = complete control
[19] = Preemergence, 500 g ai/ha, visual injury, 0 to 100 scale (0 no effect, 100 complete control), approx. ten days

5-[(2-hydroxy-6-oxo-1-cyclohexen-1-yl)carbonyl]-3-(2-methoxyethyl)-2-(3-thienyl)-4(3H)-pyrimidinone [Compound 97]
Plant response rating, Nightshade ([1]; 250 g ai/ha, 0 to 100 scale): 100 | Plant response rating, Nightshade [1, 11]: 100 | Plant response rating, Nightshade [1, 12]: 100 | Nightshade plant response rating ([1]; 0 to 100 scale): 100 | Plant response rating, Galium ([2]; 250 g ai/ha, 0 to 100 scale): 85 | Plant response rating, Galium [2, 11]: 0 | Plant response rating, Galium [2, 12]: 10 | Galium plant response rating ([2]; 0 to 100 scale): 85 | Plant response rating, Sunflower ([3]; 250 g ai/ha, 0 to 100 scale): 98 | Plant response rating, Sunflower [3, 11]: 0 | Plant response rating, Sunflower [3, 12]: 80 | Sunflower plant response rating ([3]; 0 to 100 scale): 95 | Plant response rating, Flood, Rice (rice (Oryza sativa)): 0 | Plant response rating, Rice (rice (Oryza sativa); [13]): 0 | Plant response rating, Rice (rice (Oryza sativa); [14]): 0 | Plant response rating, Rice (rice (Oryza sativa); [15]): 0 | Plant response rating, Flood, Sedge, Umbrella [4]: 55 | Plant response rating, Sedge, Umbrella [4, 13]: 0 | Plant response rating, Sedge, Umbrella [4, 14]: 40 | Plant response rating, Sedge, Umbrella [4, 15]: 55 | Plant response rating, Flood, Barnyardgrass [5]: 0 | Plant response rating, Barnyardgrass [5, 13]: 0 | Plant response rating, Barnyardgrass [5, 14]: 0 | Plant response rating, Barnyardgrass [5, 15]: 0 | Plant response rating, Flood, Ducksalad [6]: 80 | Plant response rating, Ducksalad [6, 13]: 0 | Plant response rating, Ducksalad [6, 14]: 20 | Plant response rating, Ducksalad [6, 15]: 75 | Plant response rating, Goosegrass [7]: 75 | Foxtail, Giant plant response rating [8, 16]: 90 | Plant response rating, Foxtail, Giant [8, 17]: 100 | Plant response rating, Foxtail, Giant [8, 18]: 70 | Plant response rating, Foxtail, Giant [8, 19]: 100 | Barnyardgrass plant response rating [9, 16]: 90 | Plant response rating, Barnyardgrass [9, 17]: 90 | Plant response rating, Barnyardgrass [9, 18]: 30 | Plant response rating, Barnyardgrass [9, 19]: 90 | Pigweed plant response rating [10, 16]: 100 | Plant response rating, Pigweed [10, 17]: 100 | Plant response rating, Pigweed [10, 18]: 100 | Plant response rating, Pigweed [10, 19]: 100 | Corn plant response rating (corn (Zea mays); [16]): 30 | Plant response rating, Corn (corn (Zea mays); [17]): 90 | Plant response rating, Corn (corn (Zea mays); [18]): 0 | Plant response rating, Corn (corn (Zea mays); [19]): 0

5-[(2-hydroxy-6-oxo-1-cyclohexen-1-yl)carbonyl]-3-phenyl-2-(3-pyridinyl)-4(3H)-pyrimidone [Compound 113]
Plant response rating, Nightshade ([1]; 250 g ai/ha, 0 to 100 scale): 100 | Plant response rating, Nightshade [1, 11]: 80 | Plant response rating, Nightshade [1, 12]: 90 | Nightshade plant response rating ([1]; 0 to 100 scale): 95 | Plant response rating, Galium ([2]; 250 g ai/ha, 0 to 100 scale): 0 | Plant response rating, Galium [2, 11]: 0 | Plant response rating, Galium [2, 12]: 0 | Galium plant response rating ([2]; 0 to 100 scale): 0 | Plant response rating, Sunflower ([3]; 250 g ai/ha, 0 to 100 scale): 25 | Plant response rating, Sunflower [3, 11]: 0 | Plant response rating, Sunflower [3, 12]: 0 | Sunflower plant response rating ([3]; 0 to 100 scale): 0 | Plant response rating, Flood, Rice (rice (Oryza sativa)): 0 | Plant response rating, Rice (rice (Oryza sativa); [13]): 0 | Plant response rating, Rice (rice (Oryza sativa); [14]): 0 | Plant response rating, Rice (rice (Oryza sativa); [15]): 0 | Plant response rating, Flood, Sedge, Umbrella [4]: 0 | Plant response rating, Sedge, Umbrella [4, 13]: 0 | Plant response rating, Sedge, Umbrella [4, 14]: 0 | Plant response rating, Sedge, Umbrella [4, 15]: 0 | Plant response rating, Flood, Barnyardgrass [5]: 0 | Plant response rating, Barnyardgrass [5, 13]: 0 | Plant response rating, Barnyardgrass [5, 14]: 0 | Plant response rating, Barnyardgrass [5, 15]: 0 | Plant response rating, Flood, Ducksalad [6]: 0 | Plant response rating, Ducksalad [6, 13]: 0 | Plant response rating, Ducksalad [6, 14]: 0 | Plant response rating, Ducksalad [6, 15]: 0 | Plant response rating, Goosegrass [7]: 25 | Foxtail, Giant plant response rating [8, 16]: 40 | Plant response rating, Foxtail, Giant [8, 17]: 60 | Plant response rating, Foxtail, Giant [8, 18]: 0 | Plant response rating, Foxtail, Giant [8, 19]: 20 | Barnyardgrass plant response rating [9, 16]: 30 | Plant response rating, Barnyardgrass [9, 17]: 70 | Plant response rating, Barnyardgrass [9, 18]: 0 | Plant response rating, Barnyardgrass [9, 19]: 10 | Pigweed plant response rating [10, 16]: 80 | Plant response rating, Pigweed [10, 17]: 100 | Plant response rating, Pigweed [10, 18]: 10 | Plant response rating, Pigweed [10, 19]: 80 | Corn plant response rating (corn (Zea mays); [16]): 0 | Plant response rating, Corn (corn (Zea mays); [17]): 40 | Plant response rating, Corn (corn (Zea mays); [18]): 0 | Plant response rating, Corn (corn (Zea mays); [19]): 0
